{"source": "PubChem BioAssay AID1845194", "about": "(Molecular Pharmacology Branch, DTP, NCI, 2023)", "system": "287954-098-R-J1 tumor spheroid viability", "experiment": "Anticancer human tumor 287954-098-R-J1 patient-derived Ewing sarcoma cell line growth inhibition", "conditions": "spheroids with HUVEC and MSC; for viability, T/C: stronger effect = lower value", "procedure,_shortened": "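Complex spheroids of malignant cells with endothelial cells and mesenchymal stem cells; agents alone or combined, from near clinical Cmax (or 10 microM if unknown) down in half-log steps, 0.25% DMSO final.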", "note": "Several values for one entry are separate records, joined by “and”; a condition that tells them apart may be missing. Identical values can stand only once.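 Further: spheroids exposed to compound for 7 days before viability readout.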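 Wherever viability, T/C is given: luminescent signal taken as surrogate of viable cell content; 100% = DMSO vehicle control viability and lower means growth inhibition.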", "data": [{"smiles": "[2H]c1nc(C)nc([2H])c1-c1cc(NC[C@@H](C)c2cccc3c(C(=O)NC)ccnc23)ncn1", "note": "+ COc1cc2c(cc1O)CCNC21CSC2c3c(OC(C)=O)c(C)c4c(c3C(COC1=O)N1C(O)C3Cc5cc(C)c(OC)c(O)c5C(C21)N3C)OCO4", "values": [{"measurement": "IC50", "setting": "curve of first compound, second compound 30 pM", "value": "> 10000", "unit": "nM"}, {"measurement": "IC50", "setting": "curve of first compound, second compound 94.9 pM", "value": "> 10000", "unit": "nM"}, {"measurement": "IC50", "setting": "curve of first compound, second compound 0.0003 µM", "value": "> 10000", "unit": "nM"}, {"measurement": "IC50", "setting": "curve of first compound, second compound 0.000949 µM", "value": "< 31.6", "unit": "nM"}, {"measurement": "IC50", "setting": "curve of first compound, second compound 0.003 µM", "value": "< 31.6", "unit": "nM"}, {"measurement": "viability, T/C", "setting": "second compound 30 pM, first compound 0.0316 µM", "value": 109, "unit": "%"}, {"measurement": "viability, T/C", "setting": "second compound 30 pM, first compound 0.1 µM", "value": 104, "unit": "%"}, {"measurement": "viability, T/C", "setting": "second compound 30 pM, first compound 0.316 µM", "value": 104, "unit": "%"}, {"measurement": "viability, T/C", "setting": "second compound 30 pM, first compound 1 µM", "value": 108, "unit": "%"}, {"measurement": "viability, T/C", "setting": "second compound 30 pM, first compound 3.16 µM", "value": 109, "unit": "%"}, {"measurement": "viability, T/C", "setting": "second compound 30 pM, first compound 10 µM", "value": 98.6, "unit": "%"}, {"measurement": "viability, T/C", "setting": "second compound 94.9 pM, first compound 0.0316 µM", "value": 106, "unit": "%"}, {"measurement": "viability, T/C", "setting": "second compound 94.9 pM, first compound 0.1 µM", "value": 114, "unit": "%"}, {"measurement": "viability, T/C", "setting": "second compound 94.9 pM, first compound 0.316 µM", "value": 107, "unit": "%"}, {"measurement": "viability, T/C", "setting": "second compound 94.9 pM, first compound 1 µM", "value": 110, "unit": "%"}, {"measurement": "viability, T/C", "setting": "second compound 94.9 pM, first compound 3.16 µM", "value": 101, "unit": "%"}, {"measurement": "viability, T/C", "setting": "second compound 94.9 pM, first compound 10 µM", "value": 96.7, "unit": "%"}, {"measurement": "viability, T/C", "setting": "second compound 0.0003 µM, first compound 0.0316 µM", "value": 105, "unit": "%"}, {"measurement": "viability, T/C", "setting": "second compound 0.0003 µM, first compound 0.1 µM", "value": 108, "unit": "%"}, {"measurement": "viability, T/C", "setting": "second compound 0.0003 µM, first compound 0.316 µM", "value": 112, "unit": "%"}, {"measurement": "viability, T/C", "setting": "second compound 0.0003 µM, first compound 1 µM", "value": 107, "unit": "%"}, {"measurement": "viability, T/C", "setting": "second compound 0.0003 µM, first compound 3.16 µM", "value": 95.4, "unit": "%"}, {"measurement": "viability, T/C", "setting": "second compound 0.0003 µM, first compound 10 µM", "value": 89.2, "unit": "%"}, {"measurement": "viability, T/C", "setting": "second compound 0.000949 µM, first compound 0.0316 µM", "value": 0.38, "unit": "%"}, {"measurement": "viability, T/C", "setting": "second compound 0.000949 µM, first compound 0.1 µM", "value": 0.51, "unit": "%"}, {"measurement": "viability, T/C", "setting": "second compound 0.000949 µM, first compound 0.316 µM", "value": 0.33, "unit": "%"}, {"measurement": "viability, T/C", "setting": "second compound 0.000949 µM, first compound 1 µM", "value": 0.67, "unit": "%"}, {"measurement": "viability, T/C", "setting": "second compound 0.000949 µM, first compound 3.16 µM", "value": 0.26, "unit": "%"}, {"measurement": "viability, T/C", "setting": "second compound 0.000949 µM, first compound 10 µM", "value": 0.31, "unit": "%"}, {"measurement": "viability, T/C", "setting": "second compound 0.003 µM, first compound 0.0316 µM", "value": 0.21, "unit": "%"}, {"measurement": "viability, T/C", "setting": "second compound 0.003 µM, first compound 0.1 µM", "value": 0.24, "unit": "%"}, {"measurement": "viability, T/C", "setting": "second compound 0.003 µM, first compound 0.316 µM", "value": 0.17, "unit": "%"}, {"measurement": "viability, T/C", "setting": "second compound 0.003 µM, first compound 1 µM", "value": 0.15, "unit": "%"}, {"measurement": "viability, T/C", "setting": "second compound 0.003 µM, first compound 3.16 µM", "value": 0.14, "unit": "%"}, {"measurement": "viability, T/C", "setting": "second compound 0.003 µM, first compound 10 µM", "value": 0.25, "unit": "%"}]}, {"smiles": "Cc1sc2c(c1C)C(c1ccc(Cl)cc1)=NC(CC(=O)Nc1ccc(O)cc1)c1nnc(C)n1-2", "note": "(configuration not stated)", "values": [{"measurement": "viability, T/C", "setting": "compound 0.00949 µM", "value": "113% and 114% and 104%"}, {"measurement": "viability, T/C", "setting": "compound 0.03 µM", "value": "113% and 116% and 107%"}, {"measurement": "viability, T/C", "setting": "compound 0.0949 µM", "value": "116% and 126% and 112%"}, {"measurement": "viability, T/C", "setting": "compound 0.3 µM", "value": "86.4% and 108% and 84.2%"}, {"measurement": "viability, T/C", "setting": "compound 0.949 µM", "value": "41% and 29% and 17.1%"}, {"measurement": "viability, T/C", "setting": "compound 3 µM", "value": "4.42% and 2.62% and 6.59%"}, {"measurement": "IC50", "setting": "curve of compound", "value": "747 nM and 699 nM and 539 nM"}]}, {"smiles": "CNCc1ccc(-c2cc(-c3nc(-c4ccc(S(=O)(=O)C(C)C)cc4)cnc3N)on2)cc1", "note": "+ Cn1nnc2c(C(N)=O)ncn2c1=O", "values": [{"measurement": "IC50", "setting": "curve of first compound, second compound 1 µM", "value": 545, "unit": "nM"}, {"measurement": "IC50", "setting": "curve of first compound, second compound 3.16 µM", "value": 555, "unit": "nM"}, {"measurement": "IC50", "setting": "curve of first compound, second compound 10 µM", "value": 551, "unit": "nM"}, {"measurement": "IC50", "setting": "curve of first compound, second compound 31.6 µM", "value": 398, "unit": "nM"}, {"measurement": "IC50", "setting": "curve of first compound, second compound 100 µM", "value": 170, "unit": "nM"}, {"measurement": "viability, T/C", "setting": "second compound 1 µM, first compound 0.00949 µM", "value": 98.6, "unit": "%"}, {"measurement": "viability, T/C", "setting": "second compound 1 µM, first compound 0.03 µM", "value": 103, "unit": "%"}, {"measurement": "viability, T/C", "setting": "second compound 1 µM, first compound 0.0949 µM", "value": 110, "unit": "%"}, {"measurement": "viability, T/C", "setting": "second compound 1 µM, first compound 0.3 µM", "value": 103, "unit": "%"}, {"measurement": "viability, T/C", "setting": "second compound 1 µM, first compound 0.949 µM", "value": 0.19, "unit": "%"}, {"measurement": "viability, T/C", "setting": "second compound 1 µM, first compound 3 µM", "value": 0.11, "unit": "%"}, {"measurement": "viability, T/C", "setting": "second compound 3.16 µM, first compound 0.00949 µM", "value": 105, "unit": "%"}, {"measurement": "viability, T/C", "setting": "second compound 3.16 µM, first compound 0.03 µM", "value": 106, "unit": "%"}, {"measurement": "viability, T/C", "setting": "second compound 3.16 µM, first compound 0.0949 µM", "value": 113, "unit": "%"}, {"measurement": "viability, T/C", "setting": "second compound 3.16 µM, first compound 0.3 µM", "value": 107, "unit": "%"}, {"measurement": "viability, T/C", "setting": "second compound 3.16 µM, first compound 0.949 µM", "value": 0.19, "unit": "%"}, {"measurement": "viability, T/C", "setting": "second compound 3.16 µM, first compound 3 µM", "value": 0.1, "unit": "%"}, {"measurement": "viability, T/C", "setting": "second compound 10 µM, first compound 0.00949 µM", "value": 102, "unit": "%"}, {"measurement": "viability, T/C", "setting": "second compound 10 µM, first compound 0.03 µM", "value": 110, "unit": "%"}, {"measurement": "viability, T/C", "setting": "second compound 10 µM, first compound 0.0949 µM", "value": 106, "unit": "%"}, {"measurement": "viability, T/C", "setting": "second compound 10 µM, first compound 0.3 µM", "value": 105, "unit": "%"}, {"measurement": "viability, T/C", "setting": "second compound 10 µM, first compound 0.949 µM", "value": 0.16, "unit": "%"}, {"measurement": "viability, T/C", "setting": "second compound 10 µM, first compound 3 µM", "value": 0.09, "unit": "%"}, {"measurement": "viability, T/C", "setting": "second compound 31.6 µM, first compound 0.00949 µM", "value": 104, "unit": "%"}, {"measurement": "viability, T/C", "setting": "second compound 31.6 µM, first compound 0.03 µM", "value": 106, "unit": "%"}, {"measurement": "viability, T/C", "setting": "second compound 31.6 µM, first compound 0.0949 µM", "value": 121, "unit": "%"}, {"measurement": "viability, T/C", "setting": "second compound 31.6 µM, first compound 0.3 µM", "value": 66.3, "unit": "%"}, {"measurement": "viability, T/C", "setting": "second compound 31.6 µM, first compound 0.949 µM", "value": 0.13, "unit": "%"}, {"measurement": "viability, T/C", "setting": "second compound 31.6 µM, first compound 3 µM", "value": 0.1, "unit": "%"}, {"measurement": "viability, T/C", "setting": "second compound 100 µM, first compound 0.00949 µM", "value": 97.5, "unit": "%"}, {"measurement": "viability, T/C", "setting": "second compound 100 µM, first compound 0.03 µM", "value": 100, "unit": "%"}, {"measurement": "viability, T/C", "setting": "second compound 100 µM, first compound 0.0949 µM", "value": 103, "unit": "%"}, {"measurement": "viability, T/C", "setting": "second compound 100 µM, first compound 0.3 µM", "value": 1.71, "unit": "%"}, {"measurement": "viability, T/C", "setting": "second compound 100 µM, first compound 0.949 µM", "value": 0.14, "unit": "%"}, {"measurement": "viability, T/C", "setting": "second compound 100 µM, first compound 3 µM", "value": 0.16, "unit": "%"}]}]}
